Source: patent US20260335345A1, “COMPOSITION FOR IMPROVING NICOTINAMIDE MONONUCLEOTIDE PRODUCTION” (MEIJI HOLDINGS CO., LTD., priority 2022, published 2026)

Assays:
[1] = test system: inflammatory bowel disease; conditions: in vivo; cited from earlier work
aged mice [2] = conditions: cited from earlier work
[3] = test system: mice with type II diabetes; conditions: type II diabetes induced by a high-fat diet; cited from earlier work
[4] = NMN administration; cited from earlier work
aged mice [5] = conditions: cited from earlier work; remark: listed apart in the source
[6] = test system: human feces #1 to #3 (human fecal-derived gut microbiota); test: NMN production by human fecal cultures in GAM evaluation medium with 0.5% carbohydrate (Test Example 2); type: cell-based; conditions: 37 °C, anaerobic, 12 hours; for NMN Concentration (Avg Value): GAM medium, average of human feces #1 to #3, only substance of its classification; for NMN concentration in culture (FIG. 2), in words: average of human feces #1 to #3
Protocol: 1 mg of human feces (#1 to 3) collected from different individuals was added to 1 mL of GAM medium supplemented with glucose SO that the final concentration was 0.5%, and cultured at 37 °C in an anaerobic glove box for 12 hours, and then the NMN concentration in the culture solution was measured. As the GAM medium, GAM semi-fluid medium for saccharolysis (manufactured by Nissui Pharmaceutical Co., Ltd.) was dissolved in water to a predetermined concentration, filtered through a 0.8 μm filter, and autoclaved at 115 °C for 15 minutes. The NMN concentration was measured by the following method. That is, first, the supernatant obtained by centrifuging the culture solution was filtered through a 0.22 μm filter, and then the filtrate was mixed with methanol (final concentration: 80 v/v %) and allowed to stand on ice for 30 minutes. Next, the supernatant obtained by centrifuging this was dried using a centrifugal evaporator. Next, the obtained dried product was dissolved in an ammonium acetate solution and subjected to a liquid chromatograph mass spectrometer (LC-MS/MS) for analysis under the following conditions to measure the NMN concentration. (LC-MS/MS analysis conditions)
First, each evaluation medium was prepared by adding any one of the carbohydrates shown in Table 1 below to the GAM medium (without glucose added) so that the final concentration was 0.5%. As a comparative example, an evaluation medium to which distilled water (DW) was added instead of carbohydrate was also prepared. Next, 1 mg of the same human feces #1 to #3 as in Test Example 1 was added to 1 mL of the evaluation medium, and cultured at 37 °C in an anaerobic glove box for 12 hours. After culturing, the NMN concentration in the culture solution was measured by liquid chromatograph mass spectrometer (LC-MS/MS) by the method described in Test Example 1.

[7] = cited from earlier work
[8] = test system: human gut microbiota in human flora mice; test: NMN concentration in feces of human flora mice given kestose (Test Example 4); type: in vivo; conditions: 5% kestose aqueous solution ad libitum
Protocol: 1 mg of human feces (#1 to 3) collected from different individuals was added to 1 mL of GAM medium supplemented with glucose SO that the final concentration was 0.5%, and cultured at 37 °C in an anaerobic glove box for 12 hours, and then the NMN concentration in the culture solution was measured. As the GAM medium, GAM semi-fluid medium for saccharolysis (manufactured by Nissui Pharmaceutical Co., Ltd.) was dissolved in water to a predetermined concentration, filtered through a 0.8 μm filter, and autoclaved at 115 °C for 15 minutes. The NMN concentration was measured by the following method. […]
Using kestose (manufactured by Meiji Food Materia Co., Ltd.), the effect of improving NMN production in the intestine (large intestine) of human flora mice, which were germ-free mice transplanted with human gut microbiota, was evaluated. […] Next, the mixed supernatant was dried using a centrifugal evaporator, the obtained dried product was dissolved in an ammonium acetate solution, filtered through a 0.22 μm filter, and then the NMN concentration in the filtrate was measured by liquid chromatograph mass spectrometer (LC-MS/MS) by the method described in Test Example 1 to calculate the NMN concentration (ng/mL) in the feces.

For `NC(=O)c1ccc[n+]([C@@H]2O[C@H](COP(=O)([O-])OP(=O)(O)OC[C@H]3O[C@@H](n4cnc5c(N)ncnc54)[C@H](O)[C@@H]3O)[C@@H](O)[C@H]2O)c1` [NAD, nicotinamide adenine dinucleotide], which “effect in improving inflammatory bowel disease” value [1] is on record?
The value was “effective in improving inflammatory bowel disease”.

With `NC(=O)c1ccc[n+]([C@@H]2O[C@H](COP(=O)([O-])O)[C@@H](O)[C@H]2O)c1` [NMN, β-nicotinamide mononucleotide] as the molecule, how does the “effects of NMN administration in aged mice” value (aged mice [2]) read?
The value was “suppressed age-related obesity, improved energy metabolism, and improved insulin resistance, lipid metabolism, eye function, bone density, and immune function”.

What about the “age-related changes in gene expression” value (aged mice [2]; skeletal muscle, fat, and liver) of the same molecule?
The value was “suppression of age-related changes in gene expression in skeletal muscle, fat, and liver”.

And the “gene expression related to oxidative stress, inflammatory response, and circadian rhythm” value [3]?
The value was “restored gene expression related to oxidative stress, inflammatory response, and circadian rhythm”.

What about the “glucose tolerance, hepatic insulin sensitivity” value [3] of the same molecule?
Its value is “improved glucose tolerance disorder and hepatic insulin sensitivity”.

What about the “age-related declines in organ function and dementia of the Alzheimer type” value [4] of the same molecule?
Its value is “improved age-related declines in liver function, renal function, skeletal muscle function, and cardiac function, as well as dementia of the Alzheimer type”.

What about the constipation (aged mice [5]) of the same molecule?
The constipation was “improved constipation”.

For `O=C(CO)[C@@H](O)[C@@H](O)[C@H](O)CO` [Tagatose, D-Tagatose], which “NMN Concentration (Avg Value)” value [6] is on record?
The value was 100 ng/mL.

For `OC[C@H]1O[C@@H](O[C@H]2[C@H](O)[C@@H](O)C(O)O[C@@H]2CO)[C@H](O)[C@@H](O)[C@@H]1O` (stereo partly drawn) [cellobiose, D-Cellobiose], which “NMN concentration in culture (FIG. 2), in words” value (“NMN concentration in culture” below) [6] is on record?
Its value is “higher NMN concentrations than glucose and sucrose”.

For `O=C[C@H](O)[C@@H](O)[C@H](O)[C@H](O)CO` [glucose, D-Glucose], which “absorption in the small intestine” value [7] is on record?
Its value is “completely absorbed into the body in the small intestine”.

What about the “decomposition and absorption in the upper digestive tract in vivo” value [7] of the same molecule?
The value was “decomposed and absorbed in the upper digestive tract in vivo”.

Which “NMN concentration in culture” value [6] does the source give for `OC[C@H]1O[C@@](CO)(OC[C@@]2(O[C@H]3O[C@H](CO)[C@@H](O)[C@H](O)[C@H]3O)O[C@H](CO)[C@@H](O)[C@@H]2O)[C@@H](O)[C@@H]1O` [kestose, 1-Kestose] here?
The value was “higher NMN concentrations than glucose and sucrose”.

What about the “amount of NMN produced by human gut microbiota in vivo” value [8] of the same molecule?
Its value is “increases the amount of NMN produced by human gut microbiota in vivo”.

And the “NMN concentration in feces vs Day 0” value ([8]; Day 1, 3, and 9 (FIG. 4))?
Its value is “higher on Day 1, 3, and 9”.

For `OC[C@H]1O[C@@H](O[C@H]2[C@H](O)[C@@H](O)[C@@H](O[C@]3(CO)O[C@H](CO)[C@@H](O)[C@@H]3O)O[C@@H]2CO)[C@H](O)[C@@H](O)[C@H]1O` [lactosucrose, Lactosucrose], which “NMN concentration in culture” value [6] is on record?
The value was “higher NMN concentrations than glucose and sucrose”.

For `OC[C@H]1O[C@H](OC[C@H]2O[C@H](O[C@]3(CO)O[C@H](CO)[C@@H](O)[C@@H]3O)[C@H](O)[C@@H](O)[C@@H]2O)[C@H](O)[C@@H](O)[C@H]1O` [raffinose, Raffinose], which “NMN concentration in culture” value [6] is on record?
Its value is “higher NMN concentrations than glucose and sucrose”.

Which “NMN concentration in culture” value [6] does the source give for `CC(=O)N[C@H]1[C@H]([C@H](O)[C@H](O)CO)O[C@@](O[C@H]2[C@@H](O)[C@@H](CO)O[C@@H](O[C@H]3[C@H](O)[C@@H](O)C(O)O[C@@H]3CO)[C@@H]2O)(C(=O)O)C[C@@H]1O` (some centres unmarked) [sialyllactose, 3′-Sialyllactose] here?
Its value is “relatively low NMN concentration”.

For `OC[C@H]1O[C@@](CO)(O[C@H]2O[C@H](CO)[C@@H](O)[C@H](O)[C@H]2O)[C@@H](O)[C@@H]1O` [sucrose, D-Sucrose], which “decomposition and absorption in the upper digestive tract in vivo” value [7] is on record?
Its value is “decomposed and absorbed in the upper digestive tract in vivo”.

Which “absorption in the small intestine” value [7] does the source give for `O=C[C@H](O)[C@@H](O)[C@H](O)CO` [xylose] here?
Its value is “completely absorbed into the body in the small intestine”.

With inulin as the molecule, how does the “NMN Concentration (Avg Value)” value [6] read?
Its value is 70 ng/mL.
